≈ marks a conversion by molar mass, not a printed value. Structures can show the parent of a compound that is named as a salt. Where two headings read alike, the source gives them in different places.
Assays:
[1] = tested on: lethal effects of adrenaline; experiment: adrenolytic activity in vivo in the rat (reduction of lethal effects of adrenaline)
From the text: The same activity, in vivo, has been determined in the rat. Table II reports the doses ID50 (in mg/kg) capable of reducing 50% of the lethal effects of adrenaline by intravenous administration (i.v.) and oral administration (os) of the compounds under examination.

[2] = tested on: spasmogen action of adrenaline on isolated seminal small bladder; experiment: adrenolytic activity on isolated seminal small bladder of guinea-pig (inhibition of spasmogen action of adrenaline); assay type: cell-based; settings: Cavia porcellus; isolated seminal small bladder of guinea-pig suspended in physiologic solution; read-out: concentrations inhibiting 50% of the spasmogen action of adrenaline (IC50)
From the text: The adrenolytic activity of the compounds of the invention has been tested by employing dihydroergotamine as a comparison compound. Particularly, it has been determined on the isolated seminal small bladder of guinea-pig suspended in physiologic solution.
Table I reports the concentrations inhibiting 50% of the spasmogen action of adrenaline (IC50).

[3] = intravenous administration (i.v.), read-out: ID50 (i.v.): dose reducing 50% of the lethal effects of adrenaline
[4] = oral administration (os), read-out: ID50 (os): dose reducing 50% of the lethal effects of adrenaline

Structure (SMILES) | ED50 [1, 3] [mg/kg] | ED50 [1, 4] [mg/kg] | IC50 [2] [µg/mL]
CO[C@]12C[C@@H](COC(=O)c3cccn3C)CN(C)[C@@H]1Cc1cn(C)c3cccc2c13 [1,6-dimethyl-8β-[2'-(N-methyl)-pyrroyloxymethyl]-10α-methoxyergoline] | 0.025 | 1 | 0.005 (≈ 0.0123 µM)
CO[C@]12C[C@@H](COC(=O)c3[nH]c(C)c(Br)c3C)CN(C)[C@@H]1Cc1cn(C)c3cccc2c13 [1,6-Dimethyl-8β-[3', 5'-dimethyl-4'-bromo-2'-pyrroyloxymethyl]-10α-methoxyergoline] | > 1 | 0.5 | 0.1 (≈ 0.2 µM)
CO[C@]12C[C@@H](COC(=O)c3[nH]c(C)cc3C)CN(C)[C@@H]1Cc1cn(C)c3cccc2c13 [1,6-Dimethyl-8β-(3',5'-dimethyl-2'-pyrroyloxymethyl)-10α-methoxyergoline] | 0.065 | 0.1 | 0.05 (≈ 0.119 µM)
CO[C@]12C[C@@H](COC(=O)c3cc[nH]c3)CN(C)[C@@H]1Cc1cn(C)c3cccc2c13 [1,6-Dimethyl-8β-(3'-pyrroyloxymethyl)-10α-methoxyergoline] | 0.05 | 0.5 | 0.005 (≈ 0.0127 µM)
CN1C[C@H](C(=O)N[C@]2(C)O[C@@]3(O)[C@@H]4CCCN4C(=O)[C@H](Cc4ccccc4)N3C2=O)C[C@@H]2c3cccc4[nH]cc(c34)C[C@H]21 [Dihydroergotamine, reference compound] | 0.08 | 15 | 0.015 (≈ 0.0257 µM)
COc1c[nH]cc1C(=O)OC[C@H]1CN(C)[C@@H]2Cc3cn(C)c4cccc(c34)[C@@]2(OC)C1 [1,6-Dimethyl-8β-[4'-methoxy-3'-pyrroyloxymethyl]-10α-methoxyergoline] | 0.075 | 0.3 | 0.1 (≈ 0.236 µM)
CO[C@]12C[C@@H](COC(=O)c3cc[nH]c3C)CN(C)[C@@H]1Cc1cn(C)c3cccc2c13 [1,6-Dimethyl-8β-[2'-methyl-3'-pyrroyloxymethyl]-10α-methoxyergoline] | 0.05 | 0.25 | 0.05 (≈ 0.123 µM)
CO[C@]12C[C@@H](COC(=O)c3c(C)cc(C)n3C)CN(C)[C@@H]1Cc1cn(C)c3cccc2c13 [1,6-Dimethyl-8β-[1', 3',5'-trimethyl-2'-pyrroyloxymethyl]-10α-methoxyergoline maleate] | 0.25 | 0.2 | 0.01
CO[C@]12C[C@@H](COC(=O)c3c(C)c[nH]c3C)CN(C)[C@@H]1Cc1cn(C)c3cccc2c13 [1,6-Dimethyl-8β-[2', 4'-dimethyl-3'-pyrroyloxymethyl]-10α-methoxyergoline] | 0.1 | 0.7 | 0.07 (≈ 0.166 µM)
CCOC(=O)c1c(C)[nH]c(C(=O)OC[C@H]2CN(C)[C@@H]3Cc4cn(C)c5cccc(c45)[C@@]3(OC)C2)c1C [1,6-Dimethyl-8β-[3', 5'-dimethyl-4'-carbethoxy-2'-pyrroyloxymethyl]-10α-methoxyergoline] | > 0.1 | 2.5 | 1 (≈ 2.03 µM)
CO[C@]12C[C@@H](COC(=O)c3ccc[nH]3)CN(C)[C@@H]1Cc1cn(C)c3cccc2c13 [1,6-Dimethyl-8β-(2'-pyrroyloxymethyl)-10α-methoxyergoline] | 0.005 | 0.5 | 0.005 (≈ 0.0127 µM)

Reference: patent US3966739A, “Pyrrole-carboxylic acids lumilysergol esters” (Societa' Farmaceutici Italia S.p.A., priority 1971, dated 1976)
